Values after ≈ are worked out from the molar mass of the structure shown.
What was measured:
[1] = tested on: bovine alveolar macrophages; experiment: Phospholipidosis assay (HCS LipidTox); assay type: cell-based; conditions: Bos taurus, Macrophage
Excerpt: The second immunomodulation in vitro assay evaluated the potential for phospholipidosis with the compounds of the invention in bovine alveolar macrophages. The phospholipidosis assay is being used as a convenient method for the evaluation of cellular uptake. This assay utilized Invitrogen's commercially available HCS LipidTox detection kit with an Incucyte real time fluorescence reader to observe variations in EC50 and phospholipidosis profiles based on compound concentrations (Table 2). […] Murine intraperitoneal macrophages were also used in the same assay to evaluate species variability for potential correlation with mouse efficacy results. The combination of the bovine whole blood assay and phospholipidosis assays enabled rank ordering for progression into in vivo testing in the murine challenge model.

IL-6 = experiment: Bovine whole blood assay, IL-6; assay type: cell-based; conditions: Bos taurus, fresh whole bovine blood, LPS 1 μg/mL
Experimental: (§1) (protected from light) for 30 minutes.

[2] = tested on: bovine respiratory disease (BRD); experiment: Natural bovine respiratory disease study; assay type: in vivo, beef calves; conditions: 14-day observation, dosed on arrival to feedlot
Experimental: The primary clinical endpoint for efficacy was treatment failure/success over a 14-day observation period. Clinically normal beef calves (150-200 kg) at moderate risk for BRD were dosed on arrival to the feedlot. Animals (N=114/group) received saline (T01), 5 mg/kg M9 (T02) or 10 mg/kg M9 (T03); or Zactran (T04). […] Bacterial isolates were collected at necropsy and MICs were evaluated (Table 4).

S. aureus = experiment: MIC, S. aureus; conditions: Staphylococcus aureus
BRD = experiment: Separate study, M9 versus saline control: lung lesions and mortality; assay type: in vivo; conditions: 10 mg/kg
H. somni = experiment: MIC, H. somni
P. multocida = experiment: Murine P. multocida intranasal challenge study, survival; assay type: in vivo; conditions: 32 mg/kg (T03) subcutaneous 18 hours after challenge, 5×10^3 CFU/mouse
Experimental: In one murine P. multocida intranasal challenge study, mice were administered tulathromycin (16 mg/kg; T02), M9 (32 mg/kg; T03), or ceftiofur (9 mg/kg; T04) by subcutaneous injection 18 hours after bacterial challenge (5×10^3 CFU/mouse) for lung tissue RNA sequence analysis. Survival at Day 7 was about 80%, 50%, and 90% for T02, T03, and T04, respectively, compared to placebo at 0%. Differential gene expression from total lung tissue RNA sequence analysis indicated at least 226 unique genes were up or down regulated (with significance) for T03. Output from ingenuity pathway analysis of these unique genes predicted major upstream regulators of the involved pathways. Data was analyzed based on the number of genes being modulated in the same direction that were associated with a given upstream regulator. An activation z-score of 2 or greater is considered significant and the direction change is indicated by + (activated) or − (inhibited). The top 5 pathways included: IL-9 signaling, glucocorticoid receptor signaling, prolactin signaling, JAK STAT signaling, and IL-17 signaling. The top 6 upstream regulators (activation z-score) included: lipopolysaccharide (−6.725), TNF (−4.669), IFNγ (−5.759), IL-1ß (−5.947), STAT1 (−2.787), and poly rI:rC-RNA (−5.289). Even though this study was run in the murine model, the top upstream regulators identified as being modulated by M9 include an almost ubiquitous overlap with the pathways identified in the natural disease study as being key mediators in BRD, and therefore is modulating highly relevant pathways in BRD pathobiology.

P. multocida 46572 = experiment: In vivo mouse lung infection challenge model (murine efficacy); conditions: mouse, in vivo
Experimental: The challenge organism was P. multocida 46572. Target challenge concentration was 5×10^2 CFU/mouse. Isolated colonies from overnight growth (37° C. with 5% CO2) on trypticase soy agar (TSA II) blood plates were transferred to room temperature Brain Heart Infusion Broth (BHIB). The broth culture was incubated 3.5-4 hours to approximately mid-log phase of growth, as measured by forward light scatter at 600 nm (OD600, 0.200). The culture was centrifuged to collect the bacterial pellet. The pellet was re-suspended in BHIB and adjusted to provide an approximate concentration of 2.7 log^10 colony forming units (CFU) in 0.04 mL at the highest concentration. The challenge inoculum concentration was confirmed by serial dilutions of the inoculum for CFU enumeration. On Day −5, CD-1 female mice were received. Mice were given standard rodent diet and water ad libitum. On Day 0, bacterial inoculum (0.04 mL) was administered to each mouse (n=36) intranasally. Compounds of the invention were dosed at 20 mg/kg (0.1 mL) in a buffered (˜pH 5.4) propylene glycol, monothioglycerol and water solution by subcutaneous injection. Animals were observed from Days 1-10. The study was terminated on Day 10. In addition, some treatment groups were sampled at 6, 24, and 48 hours post bacterial challenge for RNA sequence analysis of lung tissue.
The murine efficacy model (P. multocida challenge) was optimized, and the treatment group size was powered to be able to observe statistically significant improvement of survival to expected ranges for immunomodulatory compounds. The experimental design was a randomized complete block design. Mice were individually identified and treatment groups comingled within a cage, with every treatment group equally represented across cages. Mortality was the primary variable. Mortality data was analyzed using a generalized mixed model with fixed effect of treatment and random effect of block. Survival time was also analyzed using the SAS PHREG (survival analysis) procedure to examine whether there were significant differences between treatment groups and the control group. Numerous compounds of the invention and M9 (positive control) were tested in this model at a dose of 20 mg/kg (Table 3). Typical percent survival for no treatment control is in the range of 0-20% based on study to study variation in challenge inoculum and rate of infection. […] Mouse survival for M9 was about 90-100%, further supporting its residual antibacterial properties against the bacterial strain. Harmonized survival accounts for % survival relative to vehicle (“−” control) and M9 (“+” control)) survival data (Table 3).

IL-1β = experiment: Bovine whole blood assay, IL-1β; assay type: cell-based; conditions: overstimulation of IL-1β, perceived cellular toxicity concentration;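 also: compound concentration at which rising IL-1β release signals cytotoxicity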
Experimental: as §1

Structure (SMILES): CCCNC[C@]1(O)[C@H](C)O[C@@H](O[C@H]2[C@H](C)[C@@H](O[C@@H]3O[C@H](C)C[C@H](NC)[C@H]3O)[C@](C)(O)C[C@@H](C)CN[C@H](C)[C@@H](O)[C@](C)(O)[C@@H](CC)OC(=O)[C@@H]2C)C[C@@]1(C)OC [Example M9, (2R,3S,4R,5R,8R,10R,11R,12S,13S,14R)-2-ethyl-3,4,10-trihydroxy-13-(((2R,4R,5S,6S)-5-hydroxy-4-methoxy-4,6-dimethyl-5-((propylamino)methyl)-tetrahydro-2H-pyran-2-yl)oxy)-11-(((2S,3R,4S,6R)-3-hydroxy-6-methyl-4-(methylamino)tetrahydro-2H-pyran-2-yl)oxy)-3,5,8,10,12,14-hexamethyl-1-oxa-6-azacyclopentadecan-15-one]
- EC50 [1]: 53.7 µM
- IC50 (IL-6): > 250 µM
- Percent failure ([2]; 5 mg/kg (T02)): 19.3%
- Percent failure ([2]; 10 mg/kg (T03)): 8.8%
- MIC (S. aureus): 64 µg/mL (≈ 80.8 µM)
- lung lesions (BRD; versus saline control 31%, p=0.023): 20%
- Mortality (BRD; versus saline control 38.9%, p=0.025): 13%
- MIC50 (H. somni): 32 µg/mL (≈ 40.4 µM)
- MIC90 (H. somni): 32 µg/mL (≈ 40.4 µM)
- Survival at Day 7 (P. multocida): ~50%
- clinical efficacy in P. multocida infection in mice (P. multocida 46572): clinically efficacious
- IL-1β OS of LPS (IL-1β): > 500 µM

From patent US12390440B2, “Immunomodulating trifluoromethyl-aminal azalides” (Zoetis Services LLC, priority 2020, dated 2025)
